According to patent US11413278B2, “Compounds and methods for promoting stress resistance” (priority 2015, dated 2022):
Like-named read-outs stand apart in the source and are kept apart here.

Experiments:
Type in all cases: cell-based, human
[1] = tested on: FOXO3; experiment: qPCR analysis of FOXO3-regulated genes; settings: for fold induction at 10 µM: Homo sapiens; for K = Sestrin induction: score
Outline: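 FOXO3 target-gene expression quantified by qPCR normalised to B2M, PPIA and GAPDH, in WI-38 cells after 24 h exposure to 10 μM compound. Some runs used cells first transfected 36 h with 10 nM FOXO3 or NRF2 siRNA and replated ~24 h before dosing.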

[2] = tested on: NRF2; experiment: qPCR analysis of NRF2-regulated genes; settings: for fold induction at 10 µM: Homo sapiens; for Potential NRF2 Activation (>=2 target genes induced, by >=1.5-fold): Assay 13(p)
Outline: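 Expression of HMOX1, NQO1, GCLC and GSTM1 measured by qPCR relative to B2M, PPIA and GAPDH. Cells were WI-38 fibroblasts exposed 24 hrs to 10 μM compound, with RNA and cDNA prepared via Cells-to-Ct. Where stated, cells were first transfected 36 hrs with FOXO3 or NRF2 siRNA at 10 nM.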

[3] = tested on: mTOR; experiment: mTOR inhibition (RPS6 phosphorylation status), In-Cell Western
Experimental: In-Cell Western assays were performed, following a standard immuno-staining protocol. Briefly, WI-38 cells were treated with small molecules for 24 hrs, and then processed and incubated with primary antibody cocktail (Cell Signaling, mouse anti-RPS, 1:25; rabbit-anti-pRPS6-(Ser-235/236), 1:100) overnight at 4° C. Next day, samples were processed and incubated with fluorophore-conjugated secondary antibodies (Cell Signaling, DyLight 680-goat anti-mouse, 1:500; DyLight 800-goat anti-rabbit, 1:1,000). Images were collected on an Odyssey Imager (LI-COR) and analyzed with the Image Studio Lite software (version 5.0.21).
Mammalian target of rapamycin (mTOR) is a crucial regulator of cell growth and metabolism and has been implicated in aging and many diseases, including cancer, diabetes and neurological diseases (Dazert and Hall, 2011; Zoncu et al., 2011). […] In addition, the anti-diabetes drug metformin (Kalender et al., 2010), as well as other AMPK activators such as 2-deoxy-D-glucose (Inoki et al., 2003) and AICAR (Shaw et al., 2004), could inhibit mTORC1. Applicants examined the effects of our molecules (at three doses, 5 μM, 10 μM and 20 μM) on the phosphorylation status of ribosomal protein S6 (RPS6), a readout of mTOR activity, to ask whether they could inhibit mTOR.
In-Cell Western assays were performed, following the same procedures to analyze DNA-damage markers. WI-38 cells were incubated with small molecules for 24 hrs, and then processed and incubated with primary antibody cocktail (mouse anti-RPS, 1:25; rabbit-anti-pRPS6, 1:100) overnight at 4° C. Next day, samples were processed and incubated with fluorophore-conjugated secondary antibodies (goat anti-mouse, 1:500; goat anti-rabbit, 1:1,000) in antibody dilution buffer. Images were collected on an Odyssey Imager (LI-COR) and analyzed with the Image Studio Lite software.

[4] = WI-38 cells, 10 μM, 24 hrs, n=4, qPCR normalized by B2M, read-out: DDB1 Normalized fold change
[5] = WI-38 cells, 10 μM, 24 hrs, n=4, qPCR normalized by B2M, read-out: GADD45A Normalized fold change
[6] = WI-38 cells, 10 μM, 24 hrs, n=4, qPCR normalized by B2M, read-out: SESN1 Normalized fold change
[7] = qPCR, WI-38 cells, 10 μM, n=4, 24 hrs, normalized by B2M, read-out: CAT Normalized fold change
[8] = qPCR, WI-38 cells, 10 μM, n=4, 24 hrs, normalized by B2M, read-out: SOD2 Normalized fold change
[9] = qPCR, WI-38 cells, 10 μM, n=4, 24 hrs, normalized by B2M, read-out: TXNIP Normalized fold change
[10] = 24 h, Assay 12(o), at 10 uM, qPCR, read-out: Induction of NRF2-regulated genes: HMOX1 normalized fold-change
[11] = rounded fold change, WI-38 cells, 10 μM, 24 hrs (RP11 for Gr-1D, RP29 for Gr-4D), read-out: Summary of effects on NRF2-regulated genes: HMOX1
[12] = 10 μM, 24 hrs, WI-38 cells, qPCR, normalized to B2M, n = 4, read-out: HMOX1 expression, normalized fold change (NRF2-regulated gene)
[13] = WI-38 cells, 10 μM, 24 hrs, n=4, qPCR normalized by B2M, read-out: GCLC Normalized fold change
[14] = WI-38 cells, 10 μM, 24 hrs, n=4, qPCR normalized by B2M, read-out: GSTM1 Normalized fold change
[15] = WI-38 cells, 10 μM, 24 hrs, n=4, qPCR normalized by B2M, read-out: HMOX1 Normalized fold change
[16] = WI-38 cells, 10 μM, 24 hrs, n=4, qPCR normalized by B2M, read-out: NQO1 Normalized fold change
[17] = 24 h, Assay 12(o), at 10 uM, qPCR, read-out: Induction of NRF2-regulated genes: NQO1 normalized fold-change
[18] = rounded fold change, WI-38 cells, 10 μM, 24 hrs (RP29 for Gr-4D), read-out: Summary of effects on NRF2-regulated genes: NQO1
[19] = 10 μM, 24 hrs, WI-38, read-out: Expression of at least two NRF2 target genes
[20] = 10 μM, 24 hrs, WI-38 cells, qPCR, normalized to B2M, n = 4, read-out: NQO1 expression, normalized fold change (NRF2-regulated gene)

Row | Structure (SMILES) | E = Potential FOXO3 Activation ([1]; 2-point score) | fold induction at 10 µM [1, 4] | fold induction at 10 µM [1, 5] | fold induction at 10 µM [1, 6] | fold induction at 10 µM [1, 7] | fold induction at 10 µM [1, 8] | fold induction at 10 µM [1, 9] | K = Sestrin induction [1] | E = Potential FOXO3 Activation ([1]; summary score) | F = Potential NRF2 Activation ([2]; 2-point score) | fold induction at 10 µM [2, 10] | fold induction at 10 µM [2, 11] | fold induction at 10 µM [2, 12] | fold induction at 10 µM [2, 13] | fold induction at 10 µM [2, 14] | fold induction at 10 µM [2, 15] | fold induction at 10 µM [2, 16] | F = Potential NRF2 Activation ([2]; summary score) | G = mTOR down-regulation ([3]; 2-point score) | G = mTOR down-regulation ([3]; summary score) | other results
1 | O=C(Nc1ccc(Cl)c(Cl)c1)c1ccc([N+](=O)[O-])o1 [Gr-1G] | 0 | 1.14 | 0.597 | 1.38 | 1.35 | 0.756 | 1.03 | 0 | 0 | 0 | 0.5 | 0.5 | 0.5 | 1.57 | 0.948 | 0.503 | 1.26 | 0 | 0 | 0 | SOD2 expression, normalized fold change (FOXO3-regulated gene) ([1]; 10 μM, 24 hrs, WI-38 cells, qPCR, normalized to B2M, n = 4): SOD2 0.76, fold; fold induction at 10 µM ([1]; 24 h, Assay 10(m), at 10 uM, qPCR, read-out: Induction of FOXO3-regulated genes: CAT normalized fold-change): 1.35; fold induction at 10 µM ([1]; 24 h, Assay 10(m), at 10 uM, qPCR, read-out: Induction of FOXO3-regulated genes: GADD45A normalized fold-change): 0.6; fold induction at 10 µM ([1]; 24 h, Assay 10(m), at 10 uM, qPCR, read-out: Induction of FOXO3-regulated genes: SOD2 normalized fold-change): 0.76; fold induction at 10 µM ([1]; 10 μM, 24 hrs, WI-38 cells, qPCR, normalized to B2M, n = 4, read-out: CAT expression, normalized fold change (FOXO3-regulated gene)): 1.35; fold induction at 10 µM ([1]; 10 μM, 24 hrs, WI-38 cells, qPCR, normalized to B2M, n = 4, read-out: GADD45A expression, normalized fold change (FOXO3-regulated gene)): 0.6; fold induction at 10 µM ([1]; fold change, qPCR, WI-38 cells, 10 μM, 24 hrs, read-out: Summary of effects on FOXO3-regulated genes: CAT): 1.35; fold induction at 10 µM ([1]; fold change, qPCR, WI-38 cells, 10 μM, 24 hrs, read-out: Summary of effects on FOXO3-regulated genes: GADD45A): 0.6; Summary of effects on FOXO3-regulated genes: SOD2 ([1]; fold change, qPCR, WI-38 cells, 10 μM, 24 hrs): SOD2 0.76,; fold induction at 10 µM ([2]; 24 h, Assay 12(o), at 10 uM, qPCR, read-out: Induction of NRF2-regulated genes: GCLC normalized fold-change): 1.57; fold induction at 10 µM ([2]; rounded fold change, WI-38 cells, 10 μM, 24 hrs, read-out: Summary of effects on NRF2-regulated genes: GCLC): 1.57; fold induction at 10 µM ([2]; 10 μM, 24 hrs, WI-38 cells, qPCR, normalized to B2M, n = 4, read-out: GCLC expression, normalized fold change (NRF2-regulated gene)): 1.57
2 | CC1C(=O)C(C)C(c2cc(Cl)ccc2O)NC1c1cc(Cl)ccc1O (stereo not drawn) [O6] | 0 | 0.988 | 0.881 | 1.06 | 0.919 | 0.932 | 1.01 | 0 | 0 | 2 | 3.85 | 3.85 | 3.85 | 1.06 | 0.965 | 3.85 | 1.62 | 2 | 0 | 0 | Potential NRF2 Activation (>=2 target genes induced, by >=1.5-fold) [2]: YES; fold induction at 10 µM [2, 17]: 1.62; fold induction at 10 µM [2, 18]: 1.62; fold induction at 10 µM [2, 19]: > 1.5; fold induction at 10 µM [2, 20]: 1.62
3 | COc1ccc(C(=O)/C=C/c2ccccc2Br)c(OC)c1 [Gr-4B] | 0 | 1.06 | 0.61 | 0.992 | 1.18 | 1.04 | 0.792 | 0 | 0 | 2 | 4.51 | 4.51 | 4.51 | 1.15 | 1.15 | 4.51 | 2.36 | 2 | 0 | 0 | Potential NRF2 Activation (>=2 target genes induced, by >=1.5-fold) [2]: YES; fold induction at 10 µM [2, 17]: 2.36; fold induction at 10 µM [2, 18]: 2.36; fold induction at 10 µM [2, 19]: > 1.5; fold induction at 10 µM [2, 20]: 2.36
4 | O=C(Nc1nc(C23CC4CC(CC(C4)C2)C3)cs1)C(c1ccccc1)c1ccccc1 [O10] | 0 | 0.906 | 1.19 | 0.983 | 0.892 | 0.912 | 0.731 | 0 | 0 | 0 | – | – | – | 0.933 | 1.03 | 0.755 | 0.937 | 0 | 0 | 0 | –
